# Test results: patent US11246818B2, “Peptides and compositions for use in cosmetics” (LIPOTRUE, S.L., priority 2017, dated 2022)
# How the values were obtained:
# [1] = Trolox Equivalent Antioxidant Capacity (TEAC), ABTS Decolorization Assay; assay type: biochemical
# Description: As positive controls of the assay, ascorbic acid 2-glucoside (hereinafter, AA-2G) and magnesium ascorbyl phosphate (hereinafter, MAP) were tested.
# TEAC assay was used in this case. Said assay measures the antioxidant capacity of a given substance, as compared to the standard, Trolox, an analogue of Vitamin E.
# Antioxidant capacity was measured using the ABTS Decolorization Assay. In this assay, the pre-formed radical monocation of 2,2′-azinobis-(3-ethylbenzothiazoline-6-sulfonic acid) (ABTS*+) was generated by oxidation of ABTS with potassium persulfate and was reduced in the presence of antioxidants (Ac-SEQ ID NO: 1-NH2, Ac-SEQ ID NO: 2-NH2, Ac-SEQ ID NO: 3-NH2 or Ferulic acid-SEQ ID NO: 2-NH2). The ABTS.+ has a blue-green color, with maximum absorptions at 650, 734 and 820 nm. Antioxidants in the sample reduce ABTS.+ suppressing this color production to a degree that is proportional to their concentrations and antioxidant capacity. Quantification of absorbance was conducted at 734 nm using a Polarstar Omega equipment (BMG Labtech).
# [2] = tested on: Primary human epidermal melanocytes; assay: Brightening activity: intracellular melanin content; assay type: cell-based; details: 7 days; for decrease in melanin content compared with positive reference control (kojic acid): 70 μM kojic acid
# Description: Two concentrations of kojic acid were used as positive control.
# (§1) Kojic acid was used as positive control.
# Primary human epidermal melanocytes were incubated in 6-well plates for 4 days and then treated with the compounds to be analysed (Ac-SEQ ID NO: 1-NH2, Ac-SEQ ID NO: 2-NH2, Ac-SEQ ID NO: 3-NH2 or Ferulic acid-SEQ ID NO: 2-NH2) for 7 days. After treatment, cells were homogenized an intracellular melanin content was quantified by absorbance at 450 nm by Multiskan FC (Thermo Fisher Scientific, MA, USA).
# [3] = tested on: recombinant mushroom tyrosinase; assay: Mushroom tyrosinase activity in tubo (L-DOPA); assay type: biochemical
# Description: as §1, §1
# After 2 hours' reaction at room temperature, the absorbance at 450 nm of each well was determined using the microplate reader Multiskan FC (Thermo Fisher Scientific, MA, USA), which is directly proportional to the amount of dopachrome in the reaction mixture.
# HEMn cells [4] = assay: Gene expression of melanogenic pathways, HEMn cells, 11-day treatment (RTqPCR); assay type: cell-based, human
# Excerpt: Changes in gene expression levels are represented as a positive or negative fold-change with regard to the basal control (untreated cells). For FIG. 16(A), bars from top to bottom in the y-axis refer to: COX-1 (Cyclooxigenase-1), MITF ([…]), MC1R (Melanocortin-1 receptor), MLAN-A (Melanoma antigen recognized by T-cells), C-KIT (Protoongogen receptor tyrosine kinase KIT), PMEL17 (Pre-melanosome protein), DCT-TYRP2 (Dopachrome tautomerase), TYRP-1 (Tyrosinase related protein 1) and TYR (Tyrosinase). For FIG. 16(B), bars from top to bottom in the y-axis refer to: BLOC-1 (Biogenesis of lysosome-related organelles complex-1), MITF ([…]), MC1R (Melanocortin-1 receptor), MLAN-A (Melanoma antigen recognized by T-cells), C-KIT (Protoongogen receptor tyrosine kinase KIT), PMEL17 (Pre-melanosome protein), DCT-TYRP2 (Dopachrome tautomerase), TYRP-1 (Tyrosinase related protein 1) and TYR (Tyrosinase). The x-axis refers to fold change versus basal control.
# Changes in gene expression levels are represented as a positive or negative fold-change with regard to the basal control (untreated cells). Bars from top to bottom in the y-axis refer to: VDR (Vitamin D receptor), PMEL17 (Pre-melanosome protein) and DCT-TYRP2 (Dopachrome tautomerase). The x-axis refers to fold change versus basal control.
# In the case of HEMn cells, cells were left in culture for 12 days (from day 0 to day 11, 11-day treatment) at standard culture conditions (37° C., 95% humidity, 5% CO2) and treated with non-cytotoxic concentrations of Ac-SEQ ID NO: 3-NH2 (0.1 mg/mL) or Ferulic acid-SEQ ID NO: 2-NH2 (0.05 mg/mL) from day 4 to day 11.
# (§2) Untreated cells were used as basal control. Cells were then lysed for RNA extraction with a RNA purification commercial kit following manufacturer instructions (RNeasy mini kit, Qiagen, Netherlands). RNA was then quantified by nanodrop, adjusted in concentration and processed for retrotranscription to cDNA using a commercially available kit (High-Capacity cDNA Reverse Transcription kit—Thermofisher Scientific, USA). Resulting cDNA was used to perform a RTqPCR (Real Time Quantitative Polymerase Chain Reaction) using Taqman technology and a panel of probes designed to target specific genes related to melanogenesis and HEMn-HEKa and HEMn-HDFa communication.
# HEMn cells [5] = assay: Gene expression of melanogenic pathways, HEMn cells, 24-hour treatment (RTqPCR); assay type: cell-based, human; details: 0.1 mg/mL, treatment at 24 h
# Excerpt: Changes in gene expression levels are represented as a positive or negative fold-change with regard to the basal control (untreated cells). For FIG. 16(A), bars from top to bottom in the y-axis refer to: COX-1 (Cyclooxigenase-1), MITF ([…]), MC1R (Melanocortin-1 receptor), MLAN-A (Melanoma antigen recognized by T-cells), C-KIT (Protoongogen receptor tyrosine kinase KIT), PMEL17 (Pre-melanosome protein), DCT-TYRP2 (Dopachrome tautomerase), TYRP-1 (Tyrosinase related protein 1) and TYR (Tyrosinase). […]
# as §2, with “Cells were then lysed for RNA extraction with a RNA purification commercial kit following manufacturer instructions (RNeasy mini kit, Qiagen, Netherlands).” left out
# HEKa cells = assay: Gene expression of HEMn-HEKa communication and melanogenic factors, HEKa cells, 24-hour treatment (RTqPCR); assay type: cell-based, human
# Excerpt: (§3) Changes in gene expression levels are represented as a positive or negative fold-change with regard to the basal control (untreated cells). Bars from top to bottom in the y-axis refer to: KITLG (KIT ligand), TP53 (Tumor protein p53), DKK1 (Dickkopf-related protein 1) and NGF (Nerve growth factor). The x-axis refers to fold change verus basal control.
# as §3, with “POMC (Pro-opiomelanocortin), EDN1 (Endothelin-1)” for “TP53 (Tumor protein p53), DKK1 (Dickkopf-related protein 1)”, “versus” for “verus”
# Briefly, HEKa cells were seeded in duplicate in 6-well plates at a density of 4×10^5 cells/well and maintained at standard culture conditions (37° C., 95% humidity, 5% CO2) for 24 hours. Then, cells were treated with non-cytotoxic concentrations of Ac-SEQ ID NO: 3-NH2 (0.1 mg/mL) or Ferulic acid-SEQ ID NO: 2-NH2 (0.05 mg/mL) for an additional 24 hours.
# as §2
# [6] = DPPH free radical scavenging assay in tubo; assay type: biochemical
# Excerpt: The capacity to scavenge the stable DPPH free radical can be expressed as a measure of antioxidant activity.
# During this assay, the purple chromogen (DPPH) radical was reduced by antioxidant/reducing compounds to the corresponding pale-yellow hydrazine. The reduction of the purple chromogen radical by hydrogen-donating antioxidants was monitored by the decrease of optical density at long wavelengths (515-520 nm).
# Ascorbic acid was also included in the assay as positive control for scavenger activity evaluation at 30 μM and 60 μM. After 30 minutes of incubation at room temperature and gentle shaking, the absorbance at 520 nm of each well was determined using the microplate reader Multiskan FC (Thermo Fisher Scientific, MA, USA), being directly proportional to the amount of DPPH left (not-scavenged) in the reaction mixture. Absorbance values were normalized on the basis of the control (non-treated wells) which was stablished as 100%, obtaining the corresponding percentage of activity for each of the treatments.
molecule,measurement,setting,value
Ac-Leu-His-Trp-Phe-Arg-Ala-NH2 (Ac-LHWFRA-NH2) [Ac-SEQ ID NO: 3-NH2],trolox equivalents,[1]; 0.01 mg/mL,28 µM
same,trolox equivalents,[1]; 0.05 mg/mL,59 µM
same,trolox equivalents,[1]; 0.1 mg/mL,74 µM
same,decrease in melanin content,[2]; 0.1 mg/mL,49.3%
same,decrease in melanin content compared with positive reference control (kojic acid),[2],higher than the positive reference control
same,decrease in tyrosinase activity,[3]; 0.5 mg/mL,30.6%
same,decrease in tyrosinase activity,[3]; 1 mg/mL,58.1%
same,"C-KIT gene expression, fold change versus basal control",HEMn cells [4]; 0.1 mg/mL,−1.78 fold change
same,"COX-1 gene expression, fold change versus basal control",HEMn cells [4]; 0.1 mg/mL,−1.51 fold change
same,"DCT-TYRP2 gene expression, fold change versus basal control",HEMn cells [4]; 0.1 mg/mL,−1.40 fold change
same,"MC1R gene expression, fold change versus basal control",HEMn cells [4]; 0.1 mg/mL,−1.28 fold change
same,"MITF gene expression, fold change versus basal control",HEMn cells [4]; 0.1 mg/mL,−1.48 fold change
same,"MLAN-A gene expression, fold change versus basal control",HEMn cells [4]; 0.1 mg/mL,−1.88 fold change
same,"PMEL17 gene expression, fold change versus basal control",HEMn cells [4]; 0.1 mg/mL,−2.30 fold change
same,"TYR gene expression, fold change versus basal control",HEMn cells [4]; 0.1 mg/mL,−1.66 fold change
same,"TYRP-1 gene expression, fold change versus basal control",HEMn cells [4]; 0.1 mg/mL,−1.64 fold change
same,expression of genes of the melanogenic pathway,HEMn cells [5],tendency to downregulate gene expression was also observed
same,DKK-1 gene expression,HEKa cells; 0.1 mg/mL,upregulation
same,KITLG gene expression,HEKa cells; 0.1 mg/mL,downregulation
same,NGF gene expression,HEKa cells; 0.1 mg/mL,downregulation
same,TP53 gene expression,HEKa cells; 0.1 mg/mL,downregulation
Ac-His-Trp-Phe-Lys-NH2 (Ac-HWFK-NH2) [Ac-SEQ ID NO: 2-NH2],trolox equivalents,[1]; 0.05 mg/mL,22 µM
same,trolox equivalents,[1]; 0.1 mg/mL,49 µM
same,trolox equivalents,[1]; 0.5 mg/mL,130 µM
same,antioxidant power compared with AA-2G and MAP,[1]; the higher concentration tested (0.5 mg/mL),higher antioxidant power than AA-2G and MAP
same,brightening or whitening activity compared with kojic acid,"[2]; all the concentrations tested (0.01, 0.05, 0.1 mg/ml), kojic acid 10 and 50 μM",significantly higher brightening or whitening activity
same,increased brightening activity relative to the activity of the two concentrations of kojic acid,"[2]; all the concentrations tested, kojic acid 10 and 50 μM",two to more than four times
"O=C1O[C@H]([C@@H](O)CO)C(O)=C1O [ascorbic acid, reference compound]",reduction of DPPH,"[6]; 30 μM, positive control",31.3%
same,reduction of DPPH,"[6]; 60 μM, positive control",67.6%
Ferulic acid-His-Trp-Phe-Lys-NH2 [Ferulic acid-SEQ ID NO: 2-NH2],trolox equivalents,[1]; 0.01 mg/mL,59 µM
same,trolox equivalents,[1]; 0.05 mg/mL,112 µM
same,trolox equivalents,[1]; 0.1 mg/mL,113 µM
same,antioxidant power compared with MAP,[1]; at this same concentration (0.05 mg/mL),equals MAP values of trolox equivalents
same,antioxidant power compared with AA-2G,[1]; concentrations >0.05 mg/mL,higher than the one of AA-2G
same,reduction of DPPH,"[6]; 0.05 mg/mL, 300 μM DPPH, 30 minutes",48.3%
same,reduction of DPPH,"[6]; 0.1 mg/mL, 300 μM DPPH, 30 minutes",72.9%
same,reduction of DPPH,"[6]; 0.5 mg/mL, 300 μM DPPH, 30 minutes",90.6%
same,decrease in melanin content,[2]; 0.05 mg/mL,36%
same,decrease in melanin content compared with positive reference control (kojic acid),[2],comparable
same,decrease in tyrosinase activity,[3]; 0.05 mg/mL,12%
same,decrease in tyrosinase activity,[3]; 0.1 mg/mL,46.5%
same,decrease in tyrosinase activity,[3]; 0.5 mg/mL,71%
same,DCT-TYRP2 expression,HEMn cells [4]; 0.05 mg/mL,slight tendency to downregulate
same,PMEL17 expression,HEMn cells [4]; 0.05 mg/mL,slight tendency to downregulate
same,"VDR gene expression, fold change versus basal control",HEMn cells [4]; 0.05 mg/mL,1.48 fold change
same,EDN1 gene expression,HEKa cells; 0.05 mg/mL,downregulation
same,KITLG gene expression,HEKa cells; 0.05 mg/mL,downregulation
same,NGF gene expression,HEKa cells; 0.05 mg/mL,downregulation
same,POMC gene expression,HEKa cells; 0.05 mg/mL,downregulation
